Data reported in paper PMC8214093, “Structural basis of KdpD histidine kinase binding to the second messenger c-di-AMP” (The Journal of Biological Chemistry, 2021).

Biological target: USPSa-WT (Staphylococcus aureus, UniProt A0A7U7EVR3)
Assay: biochemical
Type: binding
Conditions: for Kd: Dissociation Constant (KD) ± Standard Deviation; for Kd / Dissociation Constant (KD) ± Standard Deviation: His6-USPSa WT, MST, changes in initial fluorescence; for Dissociation Constant (KD) ± Standard Deviation: columns without unit
Protocol: For labeling, the proteins were diluted to a concentration of 800 nM in binding buffer (50 mM potassium phosphate, pH 8.0, 800 mM NaCl, and 0.05% Tween 20), mixed with an equal volume of RED-Tris-NTA dye (80 nM), and incubated on ice in the dark for 30 min. […] The labeled proteins and the ligand dilutions were then mixed in a 1:1 ratio and incubated on ice in the dark for 30 min.
The samples were then loaded into Monolith standard-treated capillaries in triplicate, and the changes in fluorescence were measured with 40% LED power and 20% IR-laser power for an on-time of 20-s at 23 °C. To determine the binding affinity, the ligand-dependent changes in the intensity of the initial fluorescence, or the thermophoretic mobility, were analyzed according to the law of mass action in a standard fitting mode of MO.Affinity analysis software (version 2.3). To exclude the possibility of nonspecific binding of the ligand to the His6-tag (on USPSa) or ligand-induced USP adsorption to labware or due to aggregation, we performed His6-peptide and EDTA tests, respectively ([91]). […] In the EDTA test, the binding buffer additionally contained 50 mM EDTA to disrupt the interaction between His6-USP and the RED-Tris-NTA dye.

Chain of USPSa-WT (A0A7U7EVR3 entry or part of it): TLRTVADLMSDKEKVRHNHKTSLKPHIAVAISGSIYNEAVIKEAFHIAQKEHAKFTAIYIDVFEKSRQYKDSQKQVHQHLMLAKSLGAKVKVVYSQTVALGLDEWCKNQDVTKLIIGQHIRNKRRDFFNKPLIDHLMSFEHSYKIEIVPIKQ

| Structure (SMILES) | binding affinity, fold lower than that of c-di-AMP [fold] | Kd [mM] | Dissociation Constant (KD) ± Standard Deviation |
| --- | --- | --- | --- |
| Nc1ncnc2c1ncn2[C@@H]1O[C@H](COP(=O)(O)OP(=O)(O)OP(=O)(O)O)[C@@H](O)[C@H]1O [ATP, adenosine triphosphate] | > 5000 | 5.15 ± 0.07 | – |
| Nc1ncnc2c1ncn2[C@@H]1O[C@@H]2COP(=O)(O)O[C@H]2[C@H]1O [c-AMP, cyclic AMP] | – | 10 ± 0.71 | – |
| Nc1nc2c(ncn2[C@@H]2O[C@@H]3COP(=O)(O)O[C@H]4[C@@H](O)[C@H](n5cnc6c(=O)[nH]c(N)nc65)O[C@@H]4COP(=O)(O)O[C@H]3[C@H]2O)c(=O)[nH]1 [c-di-GMP] | – | – | No Binding Observed |
| Nc1ncnc2c1ncn2[C@@H]1O[C@@H]2COP(=O)(O)O[C@H]3[C@@H](O)[C@H](n4cnc5c(N)ncnc54)O[C@@H]3COP(=O)(O)O[C@H]3[C@@H](O)[C@H](n4cnc5c(N)ncnc54)O[C@@H]3COP(=O)(O)O[C@H]2[C@H]1O [c-tri-AMP] | – | – | No Binding Observed |
